Like-named read-outs stand apart in the source and are kept apart here.
Tests used:
[1] = tested on: Reh cells expressing different PRPS1 mutant genes; assay: Drug susceptibility test of 6-MP / 6-TG (cell survival, CellTiter-Glo); type: cell-based, human; settings: Reh cells expressing PRPS1 mutant genes compared with control group expressing empty load; 72 hours
Procedure: Reh cells are a strain of human acute B lymphoblastic leukemia. The susceptibility of the PRPS1 mutant to the chemotherapeutic drug 6-MP was determined by the survival rate of Reh cells expressing different PRPS1 mutant genes which were treated by chemotherapeutic drug 6-MP, wherein the process comprises steps of
(i) Cell inoculation: Reh cells expressing the PRPS1 wild-type and all kinds of PRPS1 mutants were counted and seeded into 96-well plates with inoculated 10^4 cells per well. Five parallel wells were designed.
Drugs were added into 96-well plates with grown cells and incubated at 37° C. for 72 hours.
The susceptibility of the PRPS1 mutant to the chemotherapeutic drug 6-TG was determined by the survival rate of Reh cells expressing different PRPS1 mutant genes which were treated by chemotherapeutic drug 6-TG, in which the process comprises steps of
(i) Cell inoculation: Reh cells expressing the PRPS1 wild-type and all kinds of PRPS1 mutants were counted and seeded into 96-well plates with inoculated 10^4 cells per well. Five parallel wells were set up.
Drug were added into 96-well plates with grown cells and incubated at 37° C. for 72 hours.

[2] = tested on: Reh cells expressing PRPS1 mutants; assay: Identification of intracellular metabolites of 6-MP by LC-MS; type: cell-based, human; settings: 10 μM 6-MP, 4 hours; mutants in experimental groups compared with control group
Procedure: 6-MP is a prodrug and needs to be undergone metabolic reactions in vivo to form TIMP and TGMP before it works, as shown in FIG. 9C. The identification procedure is as follows:
(i) Cell inoculation: Reh cells expressing the PRPS1 wild-type and various PRPS1 mutants were counted and seeded into 6 cm culture dish with inoculated 3×10^6 cells in each plate.
(ii) Cell treatment: 10 μM chemotherapy drug 6-MP was added into each 6 cm culture dish and treated for 4 hours;
(iii) Cell collection: The cells were transferred to a centrifuge tube, centrifuged at 3,000 g for 5 minutes to remove the supernatant, and lysed at 3×10^6 cells per 200 μl 80% methanol;
(iv) The amounts of metabolites from chemotherapeutic drugs 6-MP, TIMP, TGMP, r-MP, r-TG and r-MMP were measured by LC-MS (ABI 5500 Qtrap coupled with Waters Acquity UPLC), and standard curve for quantification was made using TIMP (Jean Bioscience, […], r-TG (Sigma, cat #858412), r-MMP (Sigma, cat #M4002) respectively.

[3] = tested on: Reh cells expressing PRPS1 mutant genes; assay: Identification of cells apoptosis (Annexin V / 7-AAD flow cytometry); type: cell-based, human; settings: 10 μg/ml 6-MP or 6-TG, 72 hours; cells expressing PRPS1 mutant genes compared with control group expressing empty load
Procedure: (i) Cell inoculation: Reh cells expressing the PRPS1 wild-type and various PRPS1 mutants were counted and seeded into 12-well plates with inoculated 3×10^5 cells per well. Duplicated wells were set up.
(ii) Cell treatment: the drug 6-MP or 6-TG with concentration of 10 μg/ml was added to a 12-well plate with grown cells and incubated at 37° C. for 72 hours.
(iii) Cell staining: After 72 hours, the cells were collected by centrifugation, washed with PBS buffer, added in […] and 7-AAD dye labeled with PE from BD, and incubated for 15 minutes at room temperature. The cells were centrifuged to discard the supernatant and washed twice with PBS. (iv) Identification by Flow Cytometer: proportion of cell apoptosis was determined using Flow Cytometer from Canto II BD.

[4] = tested on: PRPS1 mutants S103T, 5103N, N144S, T303S, K176N, D183E, A190T, A190V, L191F; assay: Inhibition of GDP/ADP on PRPS1 protein activity in vitro (Kinase-Glo); type: biochemical, human; settings: relapse-specific PRPS1 mutants compared with PRPS1 wild-type
Procedure: (§1) ATP (Item No. A7699), ADP (Item No. A2754), GDP (Item No. G7172) and ribose-5-phosphate (Item No. R7750) were purchased from Sigma. The reaction system comprised 50 mM Tris pH 7.5, 2 mM phosphate, 1 mM DTT, 10 mM MgCl2, 0.5 mM ribose-5-phosphate, 0.5 mM ATP and PRPS1 protein.
(§2) (ii) Inhibition of GDP/ADP on PRPS1 protein activity: 3 times gradient dilution of the GDP/ADP with an initial concentration of 5 mM And 15 μL of PRPS1 in vitro enzyme reaction system was prepared, added into 384-well plate, and reacted at 37° C. for 30 minutes. Then 10 μL of Kinase-Glo reagent (Item No. V3722) from Promega was added reacted at 37° C. for 15 minutes to terminate the reaction. The chemiluminescence values can be read in a microplate reader, and the inhibition of GDP/ADP on PRPS1 protein activity was calculated by Graphpad 5.0.

[5] = tested on: PRPS1 loss-of-function mutants A87T and M115T; assay: as above; type: biochemical, human; settings: known loss-of-function mutants A87T and M115T compared with wild-type
Procedure: as §1, §2

[6] = tested on: Reh cells expressing the PRPS1 wild-type; assay: Cell-level feedback regulation of PRPS1 activity by GDP/ADP (13C5-PRPP by LC-MS); type: cell-based, human; settings: wild-type experimental group; 2 mM ADP or 0.5 mM GDP, 4 hours
Procedure: (§3) In the present invention, the intracellular activity of PRPS1 was detected by means of isotope labeling in combination with the technologies of cell biology and metabolomics, and based on this, the effect of nucleotide GDP/ADP on PRPS1 activity was evaluated. The preferred embodiment is as follows:
(§4) (i) Cell culture: Reh cells expressing the PRPS1 wild-type and various PRPS1 mutants were counted and seeded into 6 cm culture dish, and 3×10^6 cells were inoculated in each well.
(§5) (ii) Cell treatment: 2 mM ADP or 0.5 mM GDP was added to the culture dish and cells were treated for 4 hours, after that, the cells were resuspended using glucose-free medium (Gibco, cat #11879-020), and 10 mM glucose labeled with ^13C6 was added into each 6 cm culture dish (Cambridge isotope laboratories, cat #CLM-1396-1) and labeled for 5 minutes. (iii) Cell collection: The cells were transferred to a centrifuge tube, centrifuged at 3,000 g for 5 minutes, the supernatant was removed, and the cells were lysed using 3×10^6 cells/200 μl 80% methanol. (iv) The level of ^13C5-PRPP was detected by LC-MS (ABI 5500 Qtrap coupled with Waters Acquity UPLC), and standard curve quantification was made using PRPP (sigma, cat #P8296). The activity of PRPS1 was determined according to the level of PRPP.

[7] = tested on: Reh cells expressing PRPS1 mutant genes; assay: as above; type: cell-based, human; settings: each PRPS1 mutant gene in experimental group; 2 mM ADP or 0.5 mM GDP, 4 hours
Procedure: as §3, §4, §5

HGPRT = HGPRT (Homo sapiens, UniProt P00492); settings: for TIMP generation (6-MP conversion by HGPRT): 100 μM 6-MP as reaction substrate, increased concentration of hypoxanthine; for affinity to HGPRT (Km): compared with that of 6-MP and HGPRT
Procedure: Chemotherapeutic drug 6-MP is an analog of hypoxanthine, and both 6-MP and hypoxanthine are substrates of HGPRT. The present invention established an in vitro enzymatic reaction to determine the Km value of 6-MP and hypoxanthine reacting with HGPRT, respectively, which reflects the affinity of HGPRT to hypoxanthine and 6-MP. The preferred embodiment is as follows:
The specific reaction system is as follows:
Hypoxanthine and 6-MP were diluted in a concentration gradient, reacted at 37° C. for 1 hour, and 80% methanol was added to terminate the reaction. The contents of IMP and TIMP were detected by LC-MS. The reaction curves were plotted and the Km values of hypoxanthine and 6-MP were calculated by Graphpad 5.0 software.

Reh-PRPS1-S103T cells [8] = assay: Concentration of 6-MP metabolites in cells treated with Lometrexol (LC-MS); type: cell-based, human; settings: Reh-PRPS1-S103T treated with Lometrexol vs control
Text: (§6) (v) Determining the concentration of 6-MP metabolites: the same as Embodiment 13.

Reh-PRPS1-A190T cells [9] = assay: as above; type: cell-based, human; settings: Reh-PRPS1-A190T treated with Lometrexol vs control
Text: as §6

Reh-PRPS1-S103T cells [10] = assay: Intracellular concentration of hypoxanthine in cells treated with Lometrexol (LC-MS); type: cell-based, human; settings: Reh-PRPS1-S103T treated with Lometrexol vs control
Procedure: (§7) (iii) Cell collection: cells were pipetted out from the well and centrifuged at 1500 rpm to remove the supernatant. The cells were washed with PBS once, and centrifuged again (500 g). Removed the supernatant.
(§8) (iv) Cell lysis: the cells were lysed using 200 μl 80% methanol per 3×10^6 cells.
(§9) (v) The lysed cells were centrifuged by 14,000 g at 4° C. for 10 minutes, and then the supernatant was transferred to a 1.5 ml EP tube.
(§10) (vi) The contents of hypoxanthine, AICAR and Inosine were detected by LC-MS technology (ABI 5500 Qtrap coupled with Waters Acquity UPLC), and standard curves for absolute quantification were made using ^13C5, ^15N4-hypoxanthine (Cambridge isotope laboratories, cat #489522), AICAR (sigma, cat #A9978) and Inosine (Sigma, cat #I4125), respectively.
(§11) (vi) Determining the intracellular concentration of hypoxanthine: the same as Embodiment 14.

Reh-PRPS1-A190T cells [11] = assay: as above; type: cell-based, human; settings: Reh-PRPS1-A190T treated with Lometrexol vs control
Procedure: as §7, §8, §9, §10, §11

Sequence of HGPRT (P00492 whole entry): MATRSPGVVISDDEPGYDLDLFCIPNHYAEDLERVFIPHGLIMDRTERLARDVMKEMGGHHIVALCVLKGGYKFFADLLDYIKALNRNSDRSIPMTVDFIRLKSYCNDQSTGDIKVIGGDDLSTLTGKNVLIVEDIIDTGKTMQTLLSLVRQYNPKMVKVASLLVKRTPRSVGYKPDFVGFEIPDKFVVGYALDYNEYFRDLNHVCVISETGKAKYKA

Sc1ncnc2nc[nH]c12 [6-MP, 6-mercaptopurine]
IC50 values of drug [1]: significantly increased
contents of 6-MP metabolites TIMP, TGMP and r-MP, r-TG and r-MMP in cells [2]: significantly lower
apoptotic ratio of cells [3]: significantly down-regulated

Nc1nc2nc[nH]c2c(=S)[nH]1 [6-TG, 6-thioguanine]
IC50 values of drug [1]: significantly increased
apoptotic ratio of cells [3]: significantly down-regulated

Nc1ncnc2c1ncn2[C@@H]1O[C@H](COP(=O)(O)OP(=O)(O)O)[C@@H](O)[C@H]1O [ADP]
inhibition of GDP/ADP on PRPS1 protein activity [4]: significantly lower
inhibition of GDP/ADP on PRPS1 protein activity [5]: no significant difference
concentration of PRPP after adding the nucleotide [6]: decreased
concentration of PRPP product after adding the nucleotide [7]: not affected

Nc1nc2c(ncn2[C@@H]2O[C@H](COP(=O)(O)OP(=O)(O)O)[C@@H](O)[C@H]2O)c(=O)[nH]1 [GDP]
inhibition of GDP/ADP on PRPS1 protein activity [4]: significantly lower
inhibition of GDP/ADP on PRPS1 protein activity [5]: no significant difference
concentration of PRPP after adding the nucleotide [6]: decreased
concentration of PRPP product after adding the nucleotide [7]: not affected

O=c1[nH]cnc2nc[nH]c12 [hypoxanthine]
TIMP generation (6-MP conversion by HGPRT) (HGPRT): significantly inhibited
TIMP generation (6-MP conversion by HGPRT) (HGPRT; listed as HX): can suppress
affinity to HGPRT (Km) (HGPRT): significantly higher
affinity to HGPRT (Km) (HGPRT; listed as HX): preferred to 6-MP

Lometrexol
intracellular levels of 6-MP metabolites TIMP and TGMP (Reh-PRPS1-S103T cells [8]): significantly increased
intracellular levels of 6-MP metabolites TIMP and TGMP (Reh-PRPS1-A190T cells [9]): significantly increased
concentration of hypoxanthine (Reh-PRPS1-S103T cells [10]): significantly decreased
concentration of hypoxanthine (Reh-PRPS1-A190T cells [11]): significantly decreased
